Assay results published in US20230022400A1, “IMMUNOMODULATORS” (Bristol-Myers Squibb Company, priority 2019, published 2023).
pIC50: −log10 of the molar value. Where a SMILES comes first, the peptide text is derived from it. Bridges are numbered along the chain shown (N, C = ends). [ ]: non-standard residue; d: D form. The star is where a group is joined. Trp(1-CH2CO2Me) = COC(=O)Cn1cc(C[C@H](N)C(=O)O)c2ccccc21; Trp(1-CH2COOH) = N[C@@H](Cc1cn(CC(=O)O)c2ccccc12)C(=O)O; X7 = Cc1ccc(-n2c3ccccc3c3c(*)nc(C)nc32)nc1; Hyp = O=C(O)[C@@H]1C[C@@H](O)CN1; X20 = Cc1ccc2[nH]c3c(*)ncnc3c2c1; X8 = Cn1cnc2c(Cl)nc3sc(*)nc3c21; X13 = Clc1ccc2oc3c(*)ncnc3c2c1; NMeNle = CCCC[C@H](NC)C(=O)O; X17 = Clc1cc2nc(*)sc2cc1Cl; NMeA = CN[C@@H](C)C(=O)O; X14 = Clc1cccc2sc(*)nc12; Dab = NCC[C@H](N)C(=O)O; X21 = Fc1ccc2nc(*)sc2c1; Dap = NC[C@H](N)C(=O)O; X9 = Fc1cccc2sc(*)nc12; X1 = c1ccc2sc(*)nc2c1

target: T1, PD-1/PD-L1 interaction (PD-1-Ig / PD-L1-His) (Homo sapiens, UniProt Q9NZQ7); assay: PD-1/PD-L1 Homogenous Time-Resolved Fluorescence (HTRF) binding assay; conditions: PD-L1-His 10 nM final, PD-1-Ig 20 nM final; inhibitors pre-incubated with PD-L1-His for 15 m
T1 construct: TVMV protease site (linker) (C); made in house; host or cells: HEK293T cells
T1 sequence (Q9NZQ7 18-239): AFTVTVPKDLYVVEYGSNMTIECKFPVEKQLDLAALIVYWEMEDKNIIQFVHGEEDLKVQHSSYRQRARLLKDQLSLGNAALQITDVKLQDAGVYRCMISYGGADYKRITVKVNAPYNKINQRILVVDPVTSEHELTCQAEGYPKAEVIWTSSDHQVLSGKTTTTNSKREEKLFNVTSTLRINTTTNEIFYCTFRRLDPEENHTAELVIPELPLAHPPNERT
Description: The ability of the compounds of formula (I) to bind to PD-L1 was investigated using a PD-1/PD-L1 Homogenous Time-Resolved Fluorescence (HTRF) binding assay.
The interaction of PD-1 and PD-L1 can be assessed using soluble, purified preparations of the extracellular domains of the two proteins. The PD-1 and PD-L1 protein extracellular domains were expressed as fusion proteins with detection tags, for PD-1, the tag was the Fc portion of Immunoglobulin (PD-1-Ig) and for PD-L1 it was the 6 histidine motif (PD-L1-His). All binding studies were performed in an HTRF assay buffer consisting of dPBS supplemented with 0.1% […] bovine serum albumin and 0.05% (v/v) Tween-20. For the h/PD-L1-His binding assay, inhibitors were pre-incubated with PD-L1-His (10 nM final) for 15 m in 4 μl of assay buffer, followed by addition of PD-1-Ig (20 nM final) in 1 μl of assay buffer and further incubation for 15 m. HTRF detection was achieved using europium crypate-labeled anti-Ig (1 nM final) and allophycocyanin (APC) labeled anti-His (20 nM final). Antibodies were diluted in HTRF detection buffer and 5 μl was dispensed on top of the binding reaction. The reaction mixture was allowed to equilibrate for 30 minutes and the resulting signal (665 nm/620 nm ratio) was obtained using an EnVision fluorometer. Additional binding assays were established between the human proteins PD-1-Ig/PD-L2-His (20 & 5 nM, respectively) and CD80-His/PD-L1-Ig (100 & 10 nM, respectively).
Recombinant Proteins: Human PD-1 (25-167) with a C-terminal human Fc domain of immunoglobulin G (Ig) epitope tag [hPD-1 (25-167)-3S-IG] and human PD-L1 (18-239) with a C-terminal His epitope tag [hPD-L1(18-239)-TVMV-His] were expressed in HEK293T cells and purified sequentially by ProteinA affinity chromatography and size exclusion chromatography. Human PD-L2-His and CD80-His was obtained through commercial sources.
Table 1 lists the IC50 values for representative examples of this disclosure measured in the PD-1/PD-L1 Homogenous Time-Resolved Fluorescence (HTRF) binding assay.

| Structure (SMILES) | pIC50 |
| --- | --- |
| CCCC[C@H]1C(=O)N(C)[C@@H](CCCC)C(=O)N[C@@H](CC(C)C)C(=O)N[C@H](C(=O)NCC(N)=O)CSCC(=O)N[C@@H](Cc2ccc(O)cc2)C(=O)N(C)[C@@H](C)C(=O)N[C@@H](CC(N)=O)C(=O)N2CCC[C@H]2C(=O)N[C@@H](CNc2nc3cc(Cl)c(Cl)cc3s2)C(=O)N[C@@H](CC(C)C)C(=O)N2C[C@H](O)C[C@H]2C(=O)N[C@@H](Cc2c[nH]c3ccccc23)C(=O)N[C@@H](CCNc2nc3cc(Cl)c(Cl)cc3s2)C(=O)N[C@@H](Cc2cn(CC(=O)O)c3ccccc23)C(=O)N1C [Compound 11005] ({CH2CO}-Y[NMeA]NP[Dap](X17)L[Hyp]W[Dab](X17)[Trp(1-CH2COOH)][NMeNle][NMeNle]LCG-NH2; thioether N-14) | 7.05 |
| CCCC[C@H]1C(=O)N(C)[C@@H](CCCC)C(=O)N[C@@H](CC(C)C)C(=O)N[C@H](C(=O)NCC(N)=O)CSCC(=O)N[C@@H](Cc2ccc(O)cc2)C(=O)N(C)[C@@H](C)C(=O)N[C@@H](CC(N)=O)C(=O)N2CCC[C@H]2C(=O)N[C@@H](CNc2nc3c(Cl)cccc3s2)C(=O)N[C@@H](CC(C)C)C(=O)N2C[C@H](O)C[C@H]2C(=O)N[C@@H](Cc2c[nH]c3ccccc23)C(=O)N[C@@H](CCNc2nc3c(Cl)cccc3s2)C(=O)N[C@@H](Cc2cn(CC(=O)O)c3ccccc23)C(=O)N1C [Compound 11006] ({CH2CO}-Y[NMeA]NP[Dap](X14)L[Hyp]W[Dab](X14)[Trp(1-CH2COOH)][NMeNle][NMeNle]LCG-NH2; thioether N-14) | 8.10 |
| CCCC[C@H]1C(=O)N(C)[C@@H](CCCC)C(=O)N[C@@H](CC(C)C)C(=O)N[C@H](C(=O)NCC(N)=O)CSCC(=O)N[C@@H](Cc2ccc(O)cc2)C(=O)N(C)[C@@H](C)C(=O)N[C@@H](CC(N)=O)C(=O)N2CCC[C@H]2C(=O)N[C@@H](CNc2nc3c(F)cccc3s2)C(=O)N[C@@H](CC(C)C)C(=O)N2C[C@H](O)C[C@H]2C(=O)N[C@@H](Cc2c[nH]c3ccccc23)C(=O)N[C@@H](CCNc2nc3c(F)cccc3s2)C(=O)N[C@@H](Cc2cn(CC(=O)O)c3ccccc23)C(=O)N1C [Compound 11007] ({CH2CO}-Y[NMeA]NP[Dap](X9)L[Hyp]W[Dab](X9)[Trp(1-CH2COOH)][NMeNle][NMeNle]LCG-NH2; thioether N-14) | 8.40 |
| CCCC[C@H]1C(=O)N(C)[C@@H](CCCC)C(=O)N[C@@H](CC(C)C)C(=O)N[C@H](C(=O)NCC(N)=O)CSCC(=O)N[C@@H](Cc2ccc(O)cc2)C(=O)N(C)[C@@H](C)C(=O)N[C@@H](CC(N)=O)C(=O)N2CCC[C@H]2C(=O)N[C@@H](CNc2nc3ccccc3s2)C(=O)N[C@@H](CC(C)C)C(=O)N2C[C@H](O)C[C@H]2C(=O)N[C@@H](Cc2c[nH]c3ccccc23)C(=O)N[C@@H](CCNc2nc3ccccc3s2)C(=O)N[C@@H](Cc2cn(CC(=O)OC)c3ccccc23)C(=O)N1C [Compound 12001] ({CH2CO}-Y[NMeA]NP[Dap](X1)L[Hyp]W[Dab](X1)[Trp(1-CH2CO2Me)][NMeNle][NMeNle]LCG-NH2; thioether N-14) | 6.86 |
| CCCC[C@H]1C(=O)N(C)[C@@H](CCCC)C(=O)N[C@@H](CC(C)C)C(=O)N[C@H](C(=O)NCC(N)=O)CSCC(=O)N[C@@H](Cc2ccc(O)cc2)C(=O)N(C)[C@@H](C)C(=O)N[C@@H](CC(N)=O)C(=O)N2CCC[C@H]2C(=O)N[C@@H](CNc2nc3c(nc(Cl)c4ncn(C)c43)s2)C(=O)N[C@@H](CC(C)C)C(=O)N2C[C@H](O)C[C@H]2C(=O)N[C@@H](Cc2c[nH]c3ccccc23)C(=O)N[C@@H](CCNc2nc3c(nc(Cl)c4ncn(C)c43)s2)C(=O)N[C@@H](Cc2cn(CC(=O)O)c3ccccc23)C(=O)N1C [Compound 21004] ({CH2CO}-Y[NMeA]NP[Dap](X8)L[Hyp]W[Dab](X8)[Trp(1-CH2COOH)][NMeNle][NMeNle]LCG-NH2; thioether N-14) | 8.24 |
| CCCC[C@H]1C(=O)N(C)[C@@H](CCCC)C(=O)N[C@@H](CC(C)C)C(=O)N[C@H](C(=O)NCC(N)=O)CSCC(=O)N[C@@H](Cc2ccc(O)cc2)C(=O)N(C)[C@@H](C)C(=O)N[C@@H](CC(N)=O)C(=O)N2CCC[C@H]2C(=O)N[C@@H](CNc2ncnc3c2oc2ccc(Cl)cc23)C(=O)N[C@@H](CC(C)C)C(=O)N2C[C@H](O)C[C@H]2C(=O)N[C@@H](Cc2c[nH]c3ccccc23)C(=O)N[C@@H](CCNc2ncnc3c2oc2ccc(Cl)cc23)C(=O)N[C@@H](Cc2cn(CC(=O)O)c3ccccc23)C(=O)N1C [Compound 21006] ({CH2CO}-Y[NMeA]NP[Dap](X13)L[Hyp]W[Dab](X13)[Trp(1-CH2COOH)][NMeNle][NMeNle]LCG-NH2; thioether N-14) | 7.92 |

The next lines start with the values.

| pIC50 | Structure (SMILES) |
| --- | --- |
| 8.28 | CCCC[C@H]1C(=O)N(C)[C@@H](CCCC)C(=O)N[C@@H](CC(C)C)C(=O)N[C@H](C(=O)NCC(N)=O)CSCC(=O)N[C@@H](Cc2ccc(O)cc2)C(=O)N(C)[C@@H](C)C(=O)N[C@@H](CC(N)=O)C(=O)N2CCC[C@H]2C(=O)N[C@@H](CNc2nc3c(F)cccc3s2)C(=O)N[C@@H](CC(C)C)C(=O)N2C[C@H](O)C[C@H]2C(=O)N[C@@H](Cc2c[nH]c3ccccc23)C(=O)N[C@@H](CCN)C(=O)N[C@@H](Cc2cn(CC(=O)O)c3ccccc23)C(=O)N1C [Compound 11008] ({CH2CO}-Y[NMeA]NP[Dap](X9)L[Hyp]W[Dab][Trp(1-CH2COOH)][NMeNle][NMeNle]LCG-NH2; thioether N-14) |
| 7.35 | CCCC[C@H]1C(=O)N(C)[C@@H](CCCC)C(=O)N[C@@H](CC(C)C)C(=O)N[C@H](C(=O)NCC(N)=O)CSCC(=O)N[C@@H](Cc2ccc(O)cc2)C(=O)N(C)[C@@H](C)C(=O)N[C@@H](CC(N)=O)C(=O)N2CCC[C@H]2C(=O)N[C@@H](CNc2nc3ccc(F)cc3s2)C(=O)N[C@@H](CC(C)C)C(=O)N2C[C@H](O)C[C@H]2C(=O)N[C@@H](Cc2c[nH]c3ccccc23)C(=O)N[C@@H](CCN)C(=O)N[C@@H](Cc2cn(CC(=O)O)c3ccccc23)C(=O)N1C [Compound 11010] ({CH2CO}-Y[NMeA]NP[Dap](X21)L[Hyp]W[Dab][Trp(1-CH2COOH)][NMeNle][NMeNle]LCG-NH2; thioether N-14) |
| 8.10 | CCCC[C@H]1C(=O)N(C)[C@@H](CCCC)C(=O)N[C@@H](CC(C)C)C(=O)N[C@H](C(=O)NCC(N)=O)CSCC(=O)N[C@@H](Cc2ccc(O)cc2)C(=O)N(C)[C@@H](C)C(=O)N[C@@H](CC(N)=O)C(=O)N2CCC[C@H]2C(=O)N[C@@H](CNc2nc3ccccc3s2)C(=O)N[C@@H](CC(C)C)C(=O)N2C[C@H](O)C[C@H]2C(=O)N[C@@H](Cc2c[nH]c3ccccc23)C(=O)N[C@@H](CCN)C(=O)N[C@@H](Cc2cn(CC(=O)O)c3ccccc23)C(=O)N1C [Compound 11012] ({CH2CO}-Y[NMeA]NP[Dap](X1)L[Hyp]W[Dab][Trp(1-CH2COOH)][NMeNle][NMeNle]LCG-NH2; thioether N-14) |
| 8.62 | CCCC[C@H]1C(=O)N(C)[C@@H](CCCC)C(=O)N[C@@H](CC(C)C)C(=O)N[C@H](C(=O)NCC(N)=O)CSCC(=O)N[C@@H](Cc2ccc(O)cc2)C(=O)N(C)[C@@H](C)C(=O)N[C@@H](CC(N)=O)C(=O)N2CCC[C@H]2C(=O)N[C@@H](CNc2nc3c(nc(Cl)c4ncn(C)c43)s2)C(=O)N[C@@H](CC(C)C)C(=O)N2C[C@H](O)C[C@H]2C(=O)N[C@@H](Cc2c[nH]c3ccccc23)C(=O)N[C@@H](CCN)C(=O)N[C@@H](Cc2cn(CC(=O)O)c3ccccc23)C(=O)N1C [Compound 21001] ({CH2CO}-Y[NMeA]NP[Dap](X8)L[Hyp]W[Dab][Trp(1-CH2COOH)][NMeNle][NMeNle]LCG-NH2; thioether N-14) |
| 7.89 | CCCC[C@H]1C(=O)N(C)[C@@H](CCCC)C(=O)N[C@@H](CC(C)C)C(=O)N[C@H](C(=O)NCC(N)=O)CSCC(=O)N[C@@H](Cc2ccc(O)cc2)C(=O)N(C)[C@@H](C)C(=O)N[C@@H](CC(N)=O)C(=O)N2CCC[C@H]2C(=O)N[C@@H](CNc2ncnc3c2[nH]c2ccc(C)cc23)C(=O)N[C@@H](CC(C)C)C(=O)N2C[C@H](O)C[C@H]2C(=O)N[C@@H](Cc2c[nH]c3ccccc23)C(=O)N[C@@H](CCN)C(=O)N[C@@H](Cc2cn(CC(=O)O)c3ccccc23)C(=O)N1C [Compound 21003] ({CH2CO}-Y[NMeA]NP[Dap](X20)L[Hyp]W[Dab][Trp(1-CH2COOH)][NMeNle][NMeNle]LCG-NH2; thioether N-14) |
| 7.60 | CCCC[C@H]1C(=O)N(C)[C@@H](CCCC)C(=O)N[C@@H](CC(C)C)C(=O)N[C@H](C(=O)NCC(N)=O)CSCC(=O)N[C@@H](Cc2ccc(O)cc2)C(=O)N(C)[C@@H](C)C(=O)N[C@@H](CC(N)=O)C(=O)N2CCC[C@H]2C(=O)N[C@@H](CNc2nc(C)nc3c2c2ccccc2n3-c2ccc(C)cn2)C(=O)N[C@@H](CC(C)C)C(=O)N2C[C@H](O)C[C@H]2C(=O)N[C@@H](Cc2c[nH]c3ccccc23)C(=O)N[C@@H](CCN)C(=O)N[C@@H](Cc2cn(CC(=O)O)c3ccccc23)C(=O)N1C [Compound 21005] ({CH2CO}-Y[NMeA]NP[Dap](X7)L[Hyp]W[Dab][Trp(1-CH2COOH)][NMeNle][NMeNle]LCG-NH2; thioether N-14) |
